# According to PubChem BioAssay AID588772 (The Scripps Research Institute Molecular Screening Center, 2011):
# Active and inactive are the calls of the source. No rule for the calls is given here.
# Test system: 3C-like protease (3CLpro), SARS coronavirus
# Test: SARS 3CLpro protease inhibitors, late-stage follow-up, biochemical, fluorescence, single concentration, set 4 (AID 588772)
# Settings: recombinant 3CLpro, fluorogenic substrate cleavage; at 100 µM; active compounds read high
row,Compound,inhibition
1,CC(C)(C)NC(=O)C(c1cccnc1)N(C(=O)c1ccco1)c1ccc(-c2cccnc2)cc1 (stereo not drawn),64.1%
2,CC(C)(C)NC(=O)C(c1cccnc1)N(C(=O)c1ccco1)c1ccc(Oc2ccccc2)cc1 (stereo not drawn),40.9% (inactive)
3,CC(C)(C)NC(=O)C(c1cnccn1)N(C(=O)c1ccco1)c1ccc(C(C)(C)C)cc1 (stereo not drawn),96.2%
4,CC(C)(C)NC(=O)C(c1cccnc1)N(C(=O)c1ccco1)c1ccc(I)cc1 (stereo not drawn),66.3%
5,CC(C)(C)NC(=O)C(c1cccnc1)N(C(=O)c1ccco1)c1ccc(Cc2ccccc2)cc1 (stereo not drawn),77.6%
6,CC(C)(C)NC(=O)C(c1cccnc1)N(C(=O)c1ccc(C(F)(F)F)o1)c1ccc(C(C)(C)C)cc1 (stereo not drawn),17.8% (inactive)
7,CC(C)(C)NC(=O)C(c1ccccn1)N(C(=O)c1ccco1)c1ccc(C(C)(C)C)cc1 (stereo not drawn),0.7% (inactive)
8,CC(C)(C)NC(=O)C(c1cccnc1)N(C(=O)c1ccco1)c1ccc(-c2ccnc(F)c2)cc1 (stereo not drawn),40.3% (inactive)
9,Cc1noc(C)c1-c1ccc(N(C(=O)c2ccco2)C(C(=O)NC(C)(C)C)c2cccnc2)cc1 (stereo not drawn),85.1%
10,CC(C)(C)NC(=O)C(c1ccnnc1)N(C(=O)c1ccco1)c1ccc(C(C)(C)C)cc1 (stereo not drawn),94.3%
11,CC(C)(C)c1ccc(N(Cc2cccnc2)C(=O)c2cnc[nH]2)cc1,46.8% (inactive)
12,COc1cccc(Oc2ccc(N(C(=O)c3ccco3)C(C(=O)NC(C)(C)C)c3cccnc3)cc2)c1 (stereo not drawn),52%
13,CC(C)(C)NC(=O)C(c1ccn[nH]1)N(C(=O)c1ccco1)c1ccc(C(C)(C)C)cc1 (stereo not drawn),6.3% (inactive)
14,CC(C)(C)NC(=O)C(c1cccnc1)N(C(=O)c1ccco1)c1ccc(-c2cccc(F)c2F)cc1 (stereo not drawn),90.2%
15,CC(C)(C)NC(=O)C(c1cn[nH]c1)N(C(=O)c1ccco1)c1ccc(C(C)(C)C)cc1 (stereo not drawn),16.1% (inactive)
16,CC(C)(C)NC(=O)C(c1cccnc1)N(C(=O)c1ccco1)c1ccc(-c2cccn2C(=O)OC(C)(C)C)cc1 (stereo not drawn),56.9%
17,CC(C)(C)NC(=O)[C@@H](c1cccnc1)N(C(=O)c1cnc[nH]1)c1ccc(C(C)(C)C)cc1,47.1% (inactive)
18,CC(C)(C)NC(=O)C(c1cn[nH]n1)N(C(=O)c1ccco1)c1ccc(C(C)(C)C)cc1 (stereo not drawn),22.7% (inactive)
19,CC(C)(C)NC(=O)C(c1cccnc1)N(C(=O)c1ccco1)c1ccc(OCc2ccccc2)cc1 (stereo not drawn),53.2%
20,CC(C)(C)NC(=O)[C@H](c1cccnc1)N(C(=O)c1cnc[nH]1)c1ccc(C(C)(C)C)cc1,97.6%
21,CC(C)(C)NC(=O)C(c1cccnc1)N(C(=O)c1ccco1)c1ccc(-c2ccccc2)cc1 (stereo not drawn),94.8%
22,CC(C)(C)NC(=O)C(c1cnc[nH]1)N(C(=O)c1ccco1)c1ccc(C(C)(C)C)cc1 (stereo not drawn),22.8% (inactive)
23,Cn1cnc(C(=O)N(c2ccc(C(C)(C)C)cc2)C(C(=O)NC(C)(C)C)c2cccnc2)c1 (stereo not drawn),51.3%
24,CC(C)(C)NC(=O)C(c1cccnc1)N(C(=O)c1ccco1)c1ccc(-c2cncnc2)cc1 (stereo not drawn),48.6% (inactive)
25,CC(C)(C)NC(=O)C(c1cccnc1)N(C(=O)c1cc2ccccc2o1)c1ccc(C(C)(C)C)cc1 (stereo not drawn),14.3% (inactive)
26,CC(C)(C)NC(=O)C(c1ccncc1)N(C(=O)c1ccco1)c1ccc(C(C)(C)C)cc1 (stereo not drawn),60.2%
27,CC(C)(C)NC(=O)C(c1cccnc1)N(C(=O)c1ccco1)c1ccc(-c2ccncc2)cc1 (stereo not drawn),27.8% (inactive)
28,Cc1ccc(C(C(=O)NC(C)(C)C)N(C(=O)c2ccco2)c2ccc(C(C)(C)C)cc2)cn1 (stereo not drawn),-4.1% (inactive)
